From patent US20250049970A1, “DLL3 TARGETING PEPTIDES AND CONSTRUCTS THEREOF” (MARIANA ONCOLOGY INC., priority 2023, published 2025)
Where a SMILES comes first, the peptide text is derived from it. Bridges are numbered along the chain shown (N, C = ends). [ ]: non-standard residue; d: D form. Trp(7-aza) = N[C@@H](Cc1c[nH]c2ncccc12)C(=O)O; 1Nal = N[C@@H](Cc1cccc2ccccc12)C(=O)O

Target: T1, DLL3 (Homo sapiens, UniProt Q9NYJ7)
T1 sequence (Q9NYJ7 27-618): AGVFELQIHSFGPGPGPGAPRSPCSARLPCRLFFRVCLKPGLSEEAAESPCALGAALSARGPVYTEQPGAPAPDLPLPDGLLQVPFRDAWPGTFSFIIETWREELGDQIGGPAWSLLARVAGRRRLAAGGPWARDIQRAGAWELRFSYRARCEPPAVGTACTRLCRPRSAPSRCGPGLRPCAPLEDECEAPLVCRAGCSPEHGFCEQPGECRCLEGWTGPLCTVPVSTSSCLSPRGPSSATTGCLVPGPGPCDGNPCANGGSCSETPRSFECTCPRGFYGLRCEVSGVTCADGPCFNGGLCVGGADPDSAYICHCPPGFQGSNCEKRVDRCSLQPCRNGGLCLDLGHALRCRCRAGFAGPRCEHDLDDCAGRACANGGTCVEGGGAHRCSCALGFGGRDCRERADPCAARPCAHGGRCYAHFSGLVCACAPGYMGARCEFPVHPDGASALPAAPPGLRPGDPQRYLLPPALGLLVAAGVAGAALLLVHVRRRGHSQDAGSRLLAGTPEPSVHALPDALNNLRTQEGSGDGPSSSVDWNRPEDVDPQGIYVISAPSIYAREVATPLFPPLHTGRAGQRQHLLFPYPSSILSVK
Test: SPR KD, biotinylated human DLL3 on streptavidin chip (Table 8)
Set-up: biotin (biotinylated)
Conditions: biotinylated human DLL3 on streptavidin sensor chip, 25° C., 1:1 binding model; read-out: SPR KD
Excerpt: Biotinylated target ligand human DLL3 was immobilized on a streptavidin sensor chip. A reference surface was set up for nonspecific binding and refractive index changes. […] Sensorgram curves were fitted with 1:1 binding model, and affinity and kinetic parameters were obtained using Biacore Insight evaluation 4.0. software.

## CC[C@@H](C)[C@H](NC(=O)[C@@H](NC(=O)[C@H](Cc1c[nH]c2ccccc12)NC(C)=O)[C@@H](C)O)C(=O)N[C@H]1CSSC[C@@H](C(=O)N[C@@H](Cc2c[nH]c3ccccc23)C(=O)N2CCC[C@H]2C(N)=O)NC(=O)[C@H](CC(=O)O)NC(=O)[C@H](CCCCNC(=O)CN2CCN(CC(=O)O)CCN(CC(=O)O)CCN(CC(=O)O)CC2)NC(=O)[C@H](Cc2ccc3ccccc3c2)NC(=O)[C@H](CC(N)=O)NC(=O)C(CN2CCOCC2)NC1=O (single isomer, unassigned) [compound 312, Ac-W-T-(Allo-Ile)-C(3)-[3-(1-morpholinyl)-Ala]-N-(2Nal)-Lys(DOTA)-D-C(3)-W-P-CONH2]
  Kd: < 1 nM

## CC[C@H](C)[C@H](NC(=O)[C@@H](NC(=O)[C@H](Cc1c[nH]c2ccccc12)NC(=O)[C@H](CCSC)NC(C)=O)[C@@H](C)O)C(=O)N[C@H]1CSSC[C@@H](C(=O)N[C@@H](Cc2c[nH]c3ccccc23)C(=O)N2CCC[C@H]2C(N)=O)NC(=O)[C@H](CC(=O)O)NC(=O)[C@H](Cc2cnc[nH]2)NC(=O)[C@H](Cc2c[nH]c3ccccc23)NC(=O)[C@H](CC(N)=O)NC(=O)[C@H](CC(N)=O)NC1=O [compound 1] (Ac-MWTICNNWHDCWP-NH2; disulfide 5-11)
  Kd: 1 to 10 nM

## CC[C@H](C)[C@H](NC(=O)[C@@H](NC(=O)[C@H](Cc1c[nH]c2ccccc12)NC(=O)[C@@H](C)NC(C)=O)[C@@H](C)O)C(=O)N[C@H]1CSSC[C@@H](C(=O)N[C@@H](Cc2c[nH]c3ccccc23)C(=O)N2CCC[C@H]2C(N)=O)NC(=O)[C@H](CC(=O)O)NC(=O)[C@H](Cc2cnc[nH]2)NC(=O)[C@H](Cc2c[nH]c3ccccc23)NC(=O)[C@H](CC(N)=O)NC(=O)[C@H](CC(N)=O)NC1=O [compound 2, Ac-(D-Ala)-W-T-I-C(3)-N-N-W-H-D-C(3)-W-P-CONH2] (Ac-[dA]WTICNNWHDCWP-NH2; disulfide 5-11)
  Kd: 1 to 10 nM

## CC[C@H](C)[C@H](NC(=O)[C@@H](NC(=O)[C@H](Cc1c[nH]c2ccccc12)NC(=O)[C@H](CCSC)NC(C)=O)[C@@H](C)O)C(=O)N[C@H]1CSSC[C@@H](C(=O)N[C@@H](Cc2c[nH]c3ccccc23)C(=O)N2CCC[C@H]2C(N)=O)NC(=O)[C@H](CC(=O)O)NC(=O)[C@H](Cc2cnc[nH]2)NC(=O)[C@H](Cc2c[nH]c3ccccc23)NC(=O)[C@H](CC(N)=O)NC(=O)[C@@H](C)NC1=O [compound 7, Ac-M-W-T-I-C(3)-(D-Ala)-N-W-H-D-C(3)-W-P-CONH2] (Ac-MWTIC[dA]NWHDCWP-NH2; disulfide 5-11)
  Kd: 10 to 100 nM

## CC[C@H](C)[C@H](NC(=O)[C@@H](NC(=O)[C@H](Cc1c[nH]c2ccccc12)NC(=O)[C@H](CCSC)NC(C)=O)[C@@H](C)O)C(=O)N[C@H]1CSSC[C@@H](C(=O)N[C@H](C)C(=O)N2CCC[C@H]2C(N)=O)NC(=O)[C@H](CC(=O)O)NC(=O)[C@H](Cc2cnc[nH]2)NC(=O)[C@H](Cc2c[nH]c3ccccc23)NC(=O)[C@H](CC(N)=O)NC(=O)[C@H](CC(N)=O)NC1=O [compound 9, Ac-M-W-T-I-C(3)-N-N-W-H-D-C(3)-(D-Ala)-P-CONH2] (Ac-MWTICNNWHDC[dA]P-NH2; disulfide 5-11)
  Kd: 100 to 300 nM

## CC[C@H](C)[C@H](NC(=O)[C@@H](NC(=O)[C@H](Cc1c[nH]c2ccccc12)NC(=O)[C@H](CCSC)NC(C)=O)[C@@H](C)O)C(=O)N[C@H]1CSSC[C@@H](C(=O)N[C@@H](Cc2c[nH]c3ccccc23)C(=O)N[C@H](C)C(N)=O)NC(=O)[C@H](CC(=O)O)NC(=O)[C@H](Cc2cnc[nH]2)NC(=O)[C@H](Cc2c[nH]c3ccccc23)NC(=O)[C@H](CC(N)=O)NC(=O)[C@H](CC(N)=O)NC1=O [compound 10, Ac-M-W-T-I-C(3)-N-N-W-H-D-C(3)-W-(D-Ala)-CONH2] (Ac-MWTICNNWHDCW[dA]-NH2; disulfide 5-11)
  Kd: 100 to 300 nM

## CC[C@H](C)[C@H](NC(=O)[C@@H](NC(=O)[C@H](Cc1c[nH]c2ccccc12)NC(=O)[C@H](C)NC(C)=O)[C@@H](C)O)C(=O)N[C@H]1CSSC[C@@H](C(=O)N[C@@H](Cc2c[nH]c3ccccc23)C(=O)N2CCC[C@H]2C(N)=O)NC(=O)[C@H](CC(=O)O)NC(=O)[C@H](Cc2cnc[nH]2)NC(=O)[C@H](Cc2c[nH]c3ccccc23)NC(=O)[C@H](CC(N)=O)NC(=O)[C@H](CC(N)=O)NC1=O [compound 11, Ac-(L-Ala)-W-T-I-C(3)-N-N-W-H-D-C(3)-W-P-CONH2] (Ac-AWTICNNWHDCWP-NH2; disulfide 5-11)
  Kd: 1 to 10 nM

## CC[C@H](C)[C@H](NC(=O)[C@H](C)NC(=O)[C@H](Cc1c[nH]c2ccccc12)NC(=O)[C@H](CCSC)NC(C)=O)C(=O)N[C@H]1CSSC[C@@H](C(=O)N[C@@H](Cc2c[nH]c3ccccc23)C(=O)N2CCC[C@H]2C(N)=O)NC(=O)[C@H](CC(=O)O)NC(=O)[C@H](Cc2cnc[nH]2)NC(=O)[C@H](Cc2c[nH]c3ccccc23)NC(=O)[C@H](CC(N)=O)NC(=O)[C@H](CC(N)=O)NC1=O [compound 13, Ac-M-W-(L-Ala)-I-C(3)-N-N-W-H-D-C(3)-W-P-CONH2] (Ac-MWAICNNWHDCWP-NH2; disulfide 5-11)
  Kd: 10 to 100 nM

## CSCC[C@H](NC(C)=O)C(=O)N[C@@H](Cc1c[nH]c2ccccc12)C(=O)N[C@H](C(=O)N[C@@H](C)C(=O)N[C@H]1CSSC[C@@H](C(=O)N[C@@H](Cc2c[nH]c3ccccc23)C(=O)N2CCC[C@H]2C(N)=O)NC(=O)[C@H](CC(=O)O)NC(=O)[C@H](Cc2c[nH]cn2)NC(=O)[C@H](Cc2c[nH]c3ccccc23)NC(=O)[C@H](CC(N)=O)NC(=O)[C@H](CC(N)=O)NC1=O)[C@@H](C)O [compound 14, Ac-M-W-T-(L-Ala)-C(3)-N-N-W-H-D-C(3)-W-P-CONH2] (Ac-MWTACNNWHDCWP-NH2; disulfide 5-11)
  Kd: 10 to 100 nM

## CC[C@H](C)[C@H](NC(=O)[C@@H](NC(=O)[C@H](Cc1c[nH]c2ccccc12)NC(=O)[C@H](CCSC)NC(C)=O)[C@@H](C)O)C(=O)N[C@H]1CSSC[C@@H](C(=O)N[C@@H](Cc2c[nH]c3ccccc23)C(=O)N2CCC[C@H]2C(N)=O)NC(=O)[C@H](CC(=O)O)NC(=O)[C@H](Cc2cnc[nH]2)NC(=O)[C@H](Cc2c[nH]c3ccccc23)NC(=O)[C@H](CC(N)=O)NC(=O)[C@H](C)NC1=O [compound 15, Ac-M-W-T-I-C(3)-(L-Ala)-N-W-H-D-C(3)-W-P-CONH2] (Ac-MWTICANWHDCWP-NH2; disulfide 5-11)
  Kd: 1 to 10 nM

## CC[C@H](C)[C@H](NC(=O)[C@@H](NC(=O)[C@H](Cc1c[nH]c2ncccc12)NC(C)=O)[C@@H](C)O)C(=O)N[C@H]1CSSC[C@@H](C(=O)N[C@@H](Cc2c[nH]c3ccccc23)C(=O)N2CCC[C@H]2C(N)=O)NC(=O)[C@H](CC(=O)O)NC(=O)[C@H](Cc2cnc[nH]2)NC(=O)[C@H](Cc2c[nH]c3ccccc23)NC(=O)[C@H](CC(N)=O)NC(=O)[C@H](CC(N)=O)NC1=O [compound 24, Ac-(7Aza-W)-T-I-C(3)-N-N-W-H-D-C(3)-W-P-CONH2] (Ac-[Trp(7-aza)]TICNNWHDCWP-NH2; disulfide 4-10)
  Kd: 10 to 100 nM

## CC[C@H](C)[C@H](NC(=O)[C@@H](NC(=O)[C@H](Cc1cccc2ccccc12)NC(C)=O)[C@@H](C)O)C(=O)N[C@H]1CSSC[C@@H](C(=O)N[C@@H](Cc2c[nH]c3ccccc23)C(=O)N2CCC[C@H]2C(N)=O)NC(=O)[C@H](CC(=O)O)NC(=O)[C@H](Cc2cnc[nH]2)NC(=O)[C@H](Cc2c[nH]c3ccccc23)NC(=O)[C@H](CC(N)=O)NC(=O)[C@H](CC(N)=O)NC1=O [compound 25, Ac-(1Nal)-T-I-C(3)-N-N-W-H-D-C(3)-W-P-CONH2] (Ac-[1Nal]TICNNWHDCWP-NH2; disulfide 4-10)
  Kd: 10 to 100 nM
